Tests used:
[1] = test system: WSU-DLCL2 xenografts (CD20+); assay: In vivo antitumor efficacy against WSU-DLCL2 xenografts, obinutuzumab study (FIG. 1-2); parameters: species or system human; details: for median tumor volume: venetoclax 100 mg/kg, RG6146 30 mg/kg; for TGI % (tumor growth inhibition compared to control) / npTCR (non-parametric Treatment to Control Ratio) / Tumor free mice: Day 36; for TGI % (tumor growth inhibition compared to control): obinutuzumab 10 mg/kg once weekly; for Tumor free mice: tumor free mice / mice in group
Protocol: (§1) Antibody buffer included histidine. Antibody solution was diluted appropriately in buffer from stock prior injections. BET inhibitor RG6146 was provided as powder from Roche, Basel, Switzerland and resuspended prior to use. Bcl-2 inhibitor GDC-0199 was provided by Genentech, South San Francisco, USA and formulated prior to use.
(§2) The original WSU-DLCL2 human B cell NHL cell line (DLBCL) was purchased from DSMZ (Braunschweig, Germany). Expansion of tumor cells for the transplantation was done by the TAP CompacT CellBase Cell Culture Roboter according to the protocol. Tumor cell line was routinely cultured in RPMI 1640 medium, FCS 10% and L-Glutamin 2 mM at 37° C. in a water-saturated atmosphere at 5% CO2. Culture passage was performed with trypsin/EDTA 1× splitting twice/week and passage 3 used for transplantation.
(§3) Female SCID beige mice, age 6-7 weeks at arrival, maintained under specific-pathogen-free condition with daily cycles of 12 h light/12 h darkness according to committed guidelines. Experimental study protocol was reviewed and approved by local government. After arrival animals were maintained in animal facility for one week to get accustomed to new environment and for observation. Continuous health monitoring was carried out on regular basis. Diet food and autoclaved water were provided ad libitum.
(§4) Animals were controlled daily for clinical symptoms and detection of adverse effects. For monitoring throughout the experiment body weight of animals was documented.
CD20 antibody obinutuzumab was administered as single agent and in combination at 10 mg/kg ip once weekly on days 10, 17, 24 and 31. The corresponding vehicle was administered on the same days. BET inhibitor RG6146 ip treatment at 30 mg/kg was done as single agent and in combination on days 10-18, 21-25 and 28-32. Finally, Bcl-2 inhibitor venetoclax (GDC-0199) was given orally at 100 mg/kg on days 10-18, 21-25 and 28-32 as single agent and in combination.
For the study shown in FIG. 1, WSU-DLCL2 human Diffuse Large B-cell Lymphoma (DLBCL) cells (CD20+) were s.c. inoculated with Matrigel onto female SCID beige mice. Tumor bearing mice were randomized 10 days later to the indicated study groups and compound treatment initiated. Tumor bearing animals were treated with vehicle control, with the BET inhibitor RG6146 at 30 mg/kg, with the anti-CD20 antibody obinutuzumab at 10 mg/kg or with Bcl-2 inhibitor venetoclax (GDC-0199) at 100 mg/kg as single agent. Additionally, three groups were treated with a dual combination of either RG6146 and venetoclax, or RG6146 and obinutuzumab or obinutuzumab and venetoclax. Finally, one study group received the triple combination of BET inhibitor RG6146, CD20 antibody obinutuzumab and Bcl-2 inhibitor venetoclax (GDC-0199). […] In constrast to this, the respective double combination regimens reached a tumor regrowth after about 20 days.

[2] = test system: WSU-DLCL2 xenografts (CD20+); assay: In vivo antitumor efficacy against WSU-DLCL2 xenografts, rituximab study (FIG. 3); parameters: species or system human; details: for median tumor volume / npTCR (non-parametric Treatment to Control Ratio) / Tumor free mice: rituximab 10 mg/kg; for median tumor volume: venetoclax 100 mg/kg, RG6146 30 mg/kg; for TGI % (tumor growth inhibition): rituximab 10 mg/kg once weekly, venetoclax 100 mg/kg po and RG6146 30 mg/kg ip days 11-17; for npTCR (non-parametric Treatment to Control Ratio) / Tumor free mice: venetoclax 100 mg/kg po, RG6146 30 mg/kg ip; for Tumor free mice: tumor free mice / mice in group
Protocol: as §1, §2, §3, §4
The corresponding vehicle was administered on the same days. BET inhibitor RG6146 ip treatment at 30 mg/kg was done as single agent and in combination on days 11-17. Finally, bcl-2 inhibitor venetoclax (GDC-0199) was given orally at 100 mg/kg on days 11-17 as single agent and in combination.

[3] = Day 10 (randomisation, start of treatment), s.c. xenograft in female SCID beige mice, obinutuzumab 10 mg/kg
[4] = Day 14, female SCID beige mice, obinutuzumab 10 mg/kg
[5] = Day 17, female SCID beige mice, obinutuzumab 10 mg/kg
[6] = Day 21, female SCID beige mice, obinutuzumab 10 mg/kg
[7] = Day 24, female SCID beige mice, obinutuzumab 10 mg/kg
[8] = Day 28, female SCID beige mice, obinutuzumab 10 mg/kg
[9] = Day 31, female SCID beige mice, obinutuzumab 10 mg/kg
[10] = Day 36 (treatment ended day 32), female SCID beige mice, obinutuzumab 10 mg/kg
[11] = female SCID beige mice, venetoclax 100 mg/kg po, RG6146 30 mg/kg ip
[12] = obinutuzumab 10 mg/kg, venetoclax 100 mg/kg po, RG6146 30 mg/kg ip
[13] = Day 11, s.c. xenograft in female SCID beige mice

Compound | median tumor volume [1, 3] [mm^3] | median tumor volume [1, 4] [mm^3] | median tumor volume [1, 5] [mm^3] | median tumor volume [1, 6] [mm^3] | median tumor volume [1, 7] [mm^3] | median tumor volume [1, 8] [mm^3] | median tumor volume [1, 9] [mm^3] | median tumor volume [1, 10] [mm^3] | TGI % (tumor growth inhibition compared to control) [1, 11] [%] | npTCR (non-parametric Treatment to Control Ratio) [1, 12] | Tumor free mice [1, 12] | median tumor volume [2, 13] [mm^3] | median tumor volume ([2]; Day 14, female SCID beige mice) [mm^3] | median tumor volume ([2]; Day 18, female SCID beige mice) [mm^3] | median tumor volume ([2]; Day 21, female SCID beige mice) [mm^3] | median tumor volume ([2]; Day 25, female SCID beige mice) [mm^3] | TGI % (tumor growth inhibition) ([2]; Day 28, female SCID beige mice) [%] | median tumor volume ([2]; Day 28, female SCID beige mice) [mm^3] | npTCR (non-parametric Treatment to Control Ratio) ([2]; Day 28) | Tumor free mice ([2]; Day 28) | also measured
CC1(C)CCC(CN2CCN(c3ccc(C(=O)NS(=O)(=O)c4ccc(NCC5CCOCC5)c([N+](=O)[O-])c4)c(Oc4cnc5[nH]ccc5c4)c3)CC2)=C(c2ccc(Cl)cc2)C1 [venetoclax, 4-(4-{[2-(4-chlorophenyl)-4,4-dimethylcyclohex-1-en-1-yl]methyl}piperazin-1-yl)-N-({3-nitro-4-[(tetrahydro-2H-pyran-4-ylmethyl)amino]phenyl}sulfonyl)-2-(1H-pyrrolo[2,3-b]pyridin-5-yloxy)benzamide] | 137 | 202 | 226 | 212 | 337 | 494 | 565 | 906 | 49 | 0.53 | 0/10 | 136 | 162 | 267 | 388 | 497 | 34 | 554 | 0.66 | 0/10 | 
obinutuzumab: Type II anti-CD20 antibody, synonymous for GA101, formerly known as afutuzumab | 136 | 131 | 112 | 110 | 111 | 124 | 132 | 382 | 84 | 0.20 | 0/10 |  |  |  |  |  |  |  |  |  | median tumor volume ([1]; Day 39 (follow-up after treatment), female SCID beige mice, obinutuzumab 10 mg/kg): 405 mm^3; median tumor volume ([1]; Day 43 (follow-up after treatment), female SCID beige mice, obinutuzumab 10 mg/kg): 700 mm^3; median tumor volume ([1]; Day 46 (follow-up after treatment), female SCID beige mice, obinutuzumab 10 mg/kg): 713 mm^3; median tumor volume ([1]; Day 50 (follow-up after treatment), female SCID beige mice, obinutuzumab 10 mg/kg): 758 mm^3; Tumor growth delay (Days): time until relative tumor volume reached again 100% (100% at beginning, Day 10) ([1]; female SCID beige mice, obinutuzumab 10 mg/kg, venetoclax 100 mg/kg po, RG6146 30 mg/kg ip): 21 days
Cc1sc2c(c1C)C(c1ccc(Cl)cc1)=N[C@@H](CC(=O)NCCCN1CCN(C)CC1)c1nnc(C)n1-2 [RG6146, 2-[(S)-4-(4-Chloro-phenyl)-2,3,9-trimethyl-6H-1-thia-5,7,8,9a-tetraaza-cyclopenta[e]azulen-6-yl]-N-[3-(4-methyl-piperazin-1-yl)-propyl]-acetamide] | 137 | 200 | 185 | 198 | 387 | 441 | 489 | 962 | 46 | 0.50 | 0/9 | 134 | 161 | 270 | 245 | 453 | 30 | 550 | 0.71 | 0/9 | 

Reference: patent US20200237905A1, “COMBINATION THERAPY WITH A BET INHIBITOR, A BCL-2 INHIBITOR AND AN ANTI-CD20 ANTIBODY” (Hoffmann-La Roche Inc., priority 2017, published 2020)
